Experimental data published in ChEMBL document CHEMBL1136679, “Phenylacetic acid derivatives as hPPAR agonists” (Bioorg Med Chem Lett, 2003).

How the values were obtained:
in vivo [1] = settings: male, Sprague-Dawley, rat, iv
[2] = molecular target: T1, Peroxisome proliferator-activated receptor alpha (Homo sapiens, UniProt Q07869)
T1 sequence (Q07869 whole entry): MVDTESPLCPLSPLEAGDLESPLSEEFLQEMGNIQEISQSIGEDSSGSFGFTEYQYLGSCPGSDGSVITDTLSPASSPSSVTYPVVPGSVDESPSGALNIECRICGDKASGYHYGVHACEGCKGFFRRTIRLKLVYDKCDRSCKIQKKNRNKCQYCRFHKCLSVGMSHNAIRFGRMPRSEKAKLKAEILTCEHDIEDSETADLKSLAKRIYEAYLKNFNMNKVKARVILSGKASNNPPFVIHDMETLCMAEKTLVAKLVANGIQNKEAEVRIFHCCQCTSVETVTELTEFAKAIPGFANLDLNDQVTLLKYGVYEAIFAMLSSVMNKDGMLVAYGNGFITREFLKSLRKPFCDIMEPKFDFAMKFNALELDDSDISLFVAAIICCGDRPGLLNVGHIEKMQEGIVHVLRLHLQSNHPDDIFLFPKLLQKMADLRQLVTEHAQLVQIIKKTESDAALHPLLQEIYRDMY

in vivo [3] = settings: male, Sprague-Dawley, rat, po, 10 mg/kg
Rattus norvegicus [4] = organism: Rattus norvegicus; type: functional, Plasma; settings: at 100 mg/kg/day
Rattus norvegicus [5] = organism: Rattus norvegicus; type: functional, Plasma; settings: at 30 mg/kg/day
Rattus norvegicus [6] = organism: Rattus norvegicus; type: functional, Plasma; settings: at 30 mg/kg/day; remark: listed apart in the source
[7] = molecular target: T1, Peroxisome proliferator-activated receptor alpha; remark: listed apart in the source
in vivo [8] = settings: male, Sprague-Dawley, rat, iv; remark: listed apart in the source
Rattus norvegicus [9] = organism: Rattus norvegicus; type: functional, Plasma; settings: at 100 mg/kg/day; remark: listed apart in the source
Rattus norvegicus [10] = organism: Rattus norvegicus; type: functional, Plasma; settings: at 30 mg/kg/day; remark: listed apart in the source
Rattus norvegicus [11] = organism: Rattus norvegicus; type: functional, Plasma; settings: at 100 mg/kg/day; remark: listed apart in the source
Mus musculus [12] = organism: Mus musculus; type: functional, Plasma; settings: at 100 mg/kg/day
Mus musculus [13] = organism: Mus musculus; type: functional, Plasma; settings: at 100 mg/kg/day; remark: listed apart in the source
[14] = molecular target: T2, Peroxisome proliferator-activated receptor delta (Homo sapiens, UniProt Q03181)
T2 sequence (Q03181 whole entry): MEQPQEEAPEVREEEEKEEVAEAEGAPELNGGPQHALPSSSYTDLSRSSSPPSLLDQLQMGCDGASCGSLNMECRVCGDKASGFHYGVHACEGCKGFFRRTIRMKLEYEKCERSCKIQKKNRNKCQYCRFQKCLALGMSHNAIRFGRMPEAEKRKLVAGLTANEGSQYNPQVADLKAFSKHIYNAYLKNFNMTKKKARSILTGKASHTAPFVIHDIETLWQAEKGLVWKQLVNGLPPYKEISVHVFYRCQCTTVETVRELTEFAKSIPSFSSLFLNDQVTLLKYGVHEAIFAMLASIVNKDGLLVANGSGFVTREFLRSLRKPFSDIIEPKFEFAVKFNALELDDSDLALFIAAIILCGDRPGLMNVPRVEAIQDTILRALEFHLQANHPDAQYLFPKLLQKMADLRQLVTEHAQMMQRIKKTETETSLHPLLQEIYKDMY

[15] = molecular target: T2, Peroxisome proliferator-activated receptor delta; remark: listed apart in the source
Mus musculus [16] = organism: Mus musculus; type: functional, Plasma; settings: at 30 mg/kg/day
Mus musculus [17] = organism: Mus musculus; type: functional, Plasma; settings: at 30 mg/kg/day; remark: listed apart in the source
Mus musculus [18] = organism: Mus musculus; settings: Plasma
Rattus norvegicus [19] = organism: Rattus norvegicus; type: functional, Plasma; settings: at 10 mg/kg/day
Rattus norvegicus [20] = organism: Rattus norvegicus; type: functional, Plasma; settings: at 10 mg/kg/day; remark: listed apart in the source
Mus musculus [21] = organism: Mus musculus; type: functional, Plasma; settings: at 10 mg/kg/day
Mus musculus [22] = organism: Mus musculus; type: functional, Plasma; settings: at 10 mg/kg/day; remark: listed apart in the source
Rattus norvegicus [23] = organism: Rattus norvegicus; type: functional, Plasma; settings: at 10 mg/kg/day; remark: listed apart in the source
Mus musculus [24] = organism: Mus musculus; type: functional, Plasma; settings: at 30 mg/kg/day; remark: listed apart in the source
Rattus norvegicus [25] = organism: Rattus norvegicus; type: functional, Plasma; settings: at 3 mg/kg/day
Mus musculus [26] = organism: Mus musculus; type: functional, Plasma; settings: at 3 mg/kg/day
Rattus norvegicus [27] = organism: Rattus norvegicus; settings: in vivo, po, 10 mg/kg
Rattus norvegicus [28] = organism: Rattus norvegicus; type: functional, Plasma; settings: at 3 mg/kg/day; remark: listed apart in the source
Mus musculus [29] = organism: Mus musculus; type: functional, Plasma; settings: at 30 mg/kg/day; remark: listed apart in the source
Mus musculus [30] = organism: Mus musculus; type: functional, Plasma; settings: at 3 mg/kg/day; remark: listed apart in the source
Rattus norvegicus [31] = organism: Rattus norvegicus; type: functional, Plasma; settings: at 3 mg/kg/day; remark: listed apart in the source
Rattus norvegicus [32] = organism: Rattus norvegicus; type: functional, Plasma; settings: at 30 mg/kg/day; remark: listed apart in the source
Rattus norvegicus [33] = organism: Rattus norvegicus; type: functional, Plasma; settings: at 30 mg/kg/day; remark: listed apart in the source

SMILES	half-life (in vivo [1]) [h]	EC50 ([2]; read-out: EC50) [nM]	bioavailability (in vivo [3]) [%]	Dec (Rattus norvegicus [5]) [%]	Corr (Rattus norvegicus [6]) [%]	IC50 [7] [nM]	clearance (in vivo [8]) [mL/min/kg]	Dec (Rattus norvegicus [10]) [%]	EC50 [14] [nM]	IC50 [15] [nM]	Dec (Rattus norvegicus [19]) [%]	Corr (Rattus norvegicus [20]) [%]	Corr (Mus musculus [21]) [%]	Dec (Mus musculus [22]) [%]	Dec (Rattus norvegicus [23]) [%]	further results
CCCc1c(OCCCSc2ccc(CC(=O)O)cc2Cl)ccc2c(CC)noc12 [L-165461]	1	247	50	-14	29	570	17.6	42								Dec (Rattus norvegicus [4]): 52%; Dec (Rattus norvegicus [9]): 70%; Corr (Rattus norvegicus [11]): 66%; Dec (Mus musculus [12]): 67%; Corr (Mus musculus [13]): 33%
CCCc1c(OCCCSc2ccc(CC(=O)O)cc2Cl)ccc(/C(CC)=N/O)c1O	2.8	74	33	15	44	100	5.7	65	9	10						Dec (Rattus norvegicus [4]): 54%; Dec (Rattus norvegicus [9]): 80%; Corr (Rattus norvegicus [11]): 89%
CCCc1c(OCCCSc2ccc(CC(=O)O)cc2Cl)ccc(C(C)=O)c1O		1600				7400			80	20						
CCCc1c(OCCCSc2ccc(CC(=O)O)cc2Cl)ccc2c(CC)coc12		1300				1730										Corr (Mus musculus [16]): 74%; Dec (Mus musculus [17]): 60%
CCCc1c(OCCCSc2ccc(CC(=O)O)cc2Cl)ccc2c(-c3ccccc3)coc12 [L-796449]	2.1	18	84	88	56	54		66			13	27	77	72	67	CL (mL.min-1.kg-1) (Mus musculus [18]): 3.3; Corr (Mus musculus [16]): 94%; Dec (Mus musculus [17]): 86%
CN(CCOc1ccc(CC2SC(=O)NC2=O)cc1)c1ccccn1 (stereo not given) [ROSIGLITAZONE]				86	109			94			78	99	65	75	54	EC50 [2]: Not Active
CCCc1c(OCCCSc2ccc(CC(=O)O)cc2Cl)ccc2c(C(F)(F)F)noc12	4.7	125	100		95	310	2.6		5	10	-53	83	71	46	52	Dec (Mus musculus [24]): 81%; Corr (Rattus norvegicus [25]): 18%; Corr (Mus musculus [26]): 30%; nAUC (Rattus norvegicus [27]): 2520 ng·h/mL; Dec (Rattus norvegicus [28]): -34%; Corr (Mus musculus [29]): 96%; Dec (Mus musculus [30]): 46%; Dec (Rattus norvegicus [31]): 45%; Dec (Rattus norvegicus [32]): 74%; Dec (Rattus norvegicus [33]): -65%
CCCc1c(OCCCSc2ccc(CC(=O)O)cc2Cl)ccc(C(=O)CC)c1O		260				600			10	20						
